Assay results taken from patent publication US12042503B2, “Compositions and methods for treating coronavirus infections” (priority 2020, dated 2024).
Values joined by “and” are separate entries in the source; they are usually repeats but may differ in a detail not shown here. Equal entries are not always repeated. Structures can show the parent of a compound that is named as a salt. Where two headings read alike, the source gives them in different places.

Tests used:
[1] = biological target: T1, EP4 receptor (PTGER4) (Homo sapiens, UniProt P35408); assay: PathHunter β-Arrestin PTGER4 (EP4) antagonist assay against GP1681 at EC80; format: cell-based; conditions: for inhibition of GP1681 activity, in words: standard 10 μM top concentration
T1 construct: expressed in transfected cells; host or cells: PathHunter β-Arrestin PTGER4 (EP4) cell line
Procedure: This Example describes antagonist assay experiments performed with known EP4 receptor inhibitors. Agonist controls and antagonist binding studies were performed in the PathHunter® β-Arrestin PTGER4 (EP4) cell lines. The PathHunter® β-Arrestin assay monitors activation by bound ligands of a GPCR in a homogenous, non-imaging assay format using Enzyme Fragment Complementation (EFC) with β-galactosidase (β-Gal) as the functional reporter. A fresh 10 mM working stock of GP1681 was created in the vehicle (1×PBS, pH 7.4). Prior to setting up the GP1681-antagonist assays, the parameters of the GP1681 agonist assay were optimized for most efficient cellular activation and expression of the reporter molecule via GP1681 receptor (PTGER4) binding. Two different cell densities (5K vs 7.5K) and incubation temperatures (room temperature and 37 C) were evaluated in standard agonist format. […] Vehicle only controls (1×PBS, pH 7.4) were also included for each receptor cell line. Receptor binding activity was analyzed using CBIS data analysis suite (ChemInnovation Software, Inc., San Diego, CA, USA).
The percentage of activity was calculated using the following formula: % Activity=100%×(mean RLU of test sample−mean RLU of vehicle control)/(mean MAX control ligand−mean RLU of vehicle control). Dose curves were performed and EC50 values determined. In all rows, the assay was Arrestin, the assay target was PTGER4, and the result type was EC50 for all agonists, and IC50 for all antagonists. NI indicates no inhibition, N is number of replicates, K is cell density, and RT is room temperature.
All antagonist assays were carried out in duplicate with 10 individual concentrations of one of six antagonist compounds (commercially available from Cayman Chemical; Ann Arbor, MI, USA). […] For antagonist assays, data was normalized to the maximal and minimal response observed in the presence of EC80 ligand and vehicle. A three-fold dilution series of each compound was established with a parameters). […] Incubation was at 37° C. for 90-180 minutes after which cell wells were processed for signal detection. Microplates were read following signal generation with a PerkinElmer Envision™ instrument (Waltham, MA, USA) for chemiluminescent signal detection. Vehicle only controls (PBS, pH 7.4) were also included for each antagonist run. Receptor binding activity was analyzed using CBIS data analysis suite (ChemInnovation, CA, USA). […] Percentage inhibition was calculated using the following formula: % Inhibition=100%×(1−(mean RLU of test sample−mean RLU of vehicle control)/(mean RLU of EC80 control−mean RLU of vehicle control)). […] This molecule was included as a control molecule for Eurofins work.

[2] = biological target: T2, TP receptor (TBAX2R) (Homo sapiens, UniProt P21731); assay: PathHunter beta-arrestin cell-based prostanoid receptor assay, TP; conditions: Run 1, GP1681 starting concentration 4 uM; β-Arrestin
T2 construct: host or cells: PathHunter beta-arrestin cell line
T2 sequence (P21731 1-343): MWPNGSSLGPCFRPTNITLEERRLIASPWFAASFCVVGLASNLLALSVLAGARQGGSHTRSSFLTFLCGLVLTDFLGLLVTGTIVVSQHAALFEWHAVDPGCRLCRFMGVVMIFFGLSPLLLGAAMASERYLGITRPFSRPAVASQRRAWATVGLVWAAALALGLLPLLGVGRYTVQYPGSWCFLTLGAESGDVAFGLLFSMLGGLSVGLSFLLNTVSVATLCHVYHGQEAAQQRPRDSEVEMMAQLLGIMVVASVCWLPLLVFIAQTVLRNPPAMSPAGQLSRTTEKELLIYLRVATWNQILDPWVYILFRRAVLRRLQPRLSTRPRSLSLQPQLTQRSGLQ
Procedure: (§1) DiscoverX cell-based ligand binding assays were performed in the PathHunter beta-arrestin (EP1, EP2, EP3, EP4, FP, IP, and TP receptors) or cAMP Hunter™ (DP receptor) cell lines.
(§2) Receptor binding studies were performed in either the PathHunter® b-Arrestin (EP1, EP2, EP3, EP4, FP, IP, and TP receptors) or cAMP Hunter™ (DP receptor) cell lines. A 10 mM working stock of GP1681 was created in 1×PBS, pH 7.4. All assays were carried out in duplicate with 10 individual concentrations of GP1681. A three-fold dilution series of GP1681 was established for the initial or pilot experiment with a starting concentration of 4 uM (starting concentration was chosen based on previous Gemmus Pharma preclinical experimental results).
(§3) GP1681 was incubated with cells lines at either 37° C. or room temperature, for 90-180 minutes (temperatures and incubation times are all dependent on established optimized procedures for each receptor cell line) after which cell wells were processed and signal production detected. […] Vehicle only controls (PBS, pH 7.4) were also included for each receptor cell line. Receptor binding activity was analyzed using CBIS data analysis suite (ChemInnovation, CA). The percentage of activity was calculated using the following formula: % Activity=100%×(mean RLU of test sample−mean RLU of vehicle control)/(mean MAX control ligand−mean RLU of vehicle control). Dose curves were performed and EC50 values determined.

[3] = biological target: T3, DP1 receptor (PTGDR) (Homo sapiens, UniProt Q13258); assay: cAMP Hunter cell-based prostanoid receptor assay, DP receptor; conditions: HitHunter cAMP cell line
T3 construct: host or cells: cAMP Hunter (DP receptor) cell line
T3 sequence (Q13258 1-359): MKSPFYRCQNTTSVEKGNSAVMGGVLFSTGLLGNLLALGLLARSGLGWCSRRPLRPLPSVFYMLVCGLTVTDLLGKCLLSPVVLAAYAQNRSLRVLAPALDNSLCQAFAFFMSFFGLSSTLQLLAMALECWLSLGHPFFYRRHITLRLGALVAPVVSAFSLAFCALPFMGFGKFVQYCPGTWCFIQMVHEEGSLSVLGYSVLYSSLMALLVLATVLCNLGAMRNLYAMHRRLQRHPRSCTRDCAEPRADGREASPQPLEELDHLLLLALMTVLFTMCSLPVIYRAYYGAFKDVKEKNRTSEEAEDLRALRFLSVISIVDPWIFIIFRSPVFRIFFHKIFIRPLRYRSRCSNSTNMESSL
Procedure: as §1, §2, §3
(§4) The four assays were repeated with a higher starting concentration.
(§5) The second experimental run of the receptor binding assay was performed with these last four cell lines including GP1681 and their respective positive and negative (vehicle, PBS pH 7.4) controls. A 10 mM GP1681 working stock was again created in 1×PBS, pH 7.4. A three-fold serial dilution scheme was again used for GP1681 samples, starting this time at a concentration of 500 μM. The remainder of the second experimental run was performed in the same manner as run 1.

[4] = biological target: T4, IP receptor (PTGIR) (Homo sapiens, UniProt P43119); assay: PathHunter beta-arrestin cell-based prostanoid receptor assay, IP
T4 construct: host or cells: PathHunter beta-arrestin cell line
Procedure: as §1, §2, §3

[5] = biological target: T5, EP1 receptor (PTGER1) (Homo sapiens, UniProt P34995); assay: PathHunter beta-arrestin cell-based prostanoid receptor assay, EP1; conditions: β-Arrestin
T5 construct: host or cells: PathHunter beta-arrestin cell line
T5 sequence (P34995 1-402): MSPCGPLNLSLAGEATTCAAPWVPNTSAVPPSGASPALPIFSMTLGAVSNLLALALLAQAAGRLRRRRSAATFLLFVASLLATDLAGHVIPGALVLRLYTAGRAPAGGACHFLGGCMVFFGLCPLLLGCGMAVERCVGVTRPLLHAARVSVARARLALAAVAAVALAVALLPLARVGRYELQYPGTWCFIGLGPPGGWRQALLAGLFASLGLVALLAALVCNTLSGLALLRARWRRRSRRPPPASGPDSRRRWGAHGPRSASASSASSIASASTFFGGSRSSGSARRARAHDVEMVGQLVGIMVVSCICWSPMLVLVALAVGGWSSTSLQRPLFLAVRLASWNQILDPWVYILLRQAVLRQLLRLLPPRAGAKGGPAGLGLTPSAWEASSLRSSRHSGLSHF
Procedure: as §1, §2, §3, §4, §5

[6] = 5K 37C, GP1681 at EC80, read-out: IC50 for competitive inhibition of GP1681
[7] = 5K 37C, challenge with GP1681 at EC80 (45 μM), read-out: RC50 (μM) / IC50, antagonist
[8] = Run 1, GP1681 starting concentration 4 uM, curve for GP1681 not fully sigmoidal
[9] = Run 2, GP1681 starting concentration 500 μM

T1 sequence (P35408 whole entry): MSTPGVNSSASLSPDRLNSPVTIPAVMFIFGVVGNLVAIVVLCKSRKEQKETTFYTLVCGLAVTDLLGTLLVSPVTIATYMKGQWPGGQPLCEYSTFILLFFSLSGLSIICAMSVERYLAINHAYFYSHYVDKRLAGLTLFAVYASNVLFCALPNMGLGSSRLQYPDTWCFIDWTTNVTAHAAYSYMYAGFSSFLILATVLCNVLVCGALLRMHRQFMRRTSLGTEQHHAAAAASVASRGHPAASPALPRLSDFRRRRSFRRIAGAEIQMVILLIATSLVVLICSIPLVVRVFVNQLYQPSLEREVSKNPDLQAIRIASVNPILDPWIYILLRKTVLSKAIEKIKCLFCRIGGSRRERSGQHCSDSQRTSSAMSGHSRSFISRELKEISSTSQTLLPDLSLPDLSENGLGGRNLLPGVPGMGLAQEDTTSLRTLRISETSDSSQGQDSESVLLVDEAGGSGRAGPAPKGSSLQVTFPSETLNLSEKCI
T4 sequence (P43119 whole entry): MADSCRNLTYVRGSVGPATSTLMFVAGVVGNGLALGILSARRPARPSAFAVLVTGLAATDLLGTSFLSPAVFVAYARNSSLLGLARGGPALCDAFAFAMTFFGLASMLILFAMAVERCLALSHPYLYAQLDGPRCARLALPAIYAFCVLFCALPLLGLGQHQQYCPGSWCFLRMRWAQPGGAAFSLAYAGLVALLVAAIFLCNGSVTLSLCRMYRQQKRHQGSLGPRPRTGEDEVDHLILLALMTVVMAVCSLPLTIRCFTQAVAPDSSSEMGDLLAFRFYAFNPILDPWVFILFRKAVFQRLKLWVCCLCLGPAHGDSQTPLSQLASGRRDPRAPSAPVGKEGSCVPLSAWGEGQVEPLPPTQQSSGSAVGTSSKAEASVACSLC

## CCCCc1nn(-c2ccccc2C(F)(F)F)c(=O)n1Cc1ccc(-c2ccccc2S(=O)(=O)NC(=O)c2sccc2C)cc1 [L-161,982]
[1]; [6]
  IC50: 0.0339 µM
[1]; [7]
  IC50: 0.0339 µM

## O=C(O)CCC/C=C\C[C@@H]1[C@@H](/C=C/[C@@H](O)COc2ccc(I)cc2)[C@H]2CC[C@@H]1O2 [I-BOP, reference compound]
[2]
  EC50: 32 nM

## CCOc1c2c(c(OCC)c3ccccc13)C(=O)N(c1ccc(CC(=O)NS(=O)(=O)c3ccccc3)cc1)C2 [GW 627368X]
[1]; [6]
  IC50: 0.0442 µM
[1]; [7]
  IC50: 0.0442 µM

## CCc1nc2c(C)nc(C)cc2n1-c1ccc(CCNC(=O)NS(=O)(=O)c2ccc(C)cc2)cc1 [CJ-023423]
[1]; IC50 for competitive inhibition of GP1681, 5K 37C, GP1681 at EC80
  IC50: 0.0265 µM
[1]; RC50 (μM) / IC50, antagonist, 5K 37C, challenge with GP1681 at EC80 (45 μM)
  IC50: 0.0265 µM and 0.0266 µM

## CCCCC[C@H](O)/C=C/[C@H]1C(=O)C[C@H](O)[C@@H]1C/C=C\CCCC(=O)O [PDG2, PGD2, reference compound]
[3]; [8]
  EC50: 2.2 nM
[3]; [9]
  EC50: 1.2 nM

## CC#CCC(C)C(O)C=CC1C(O)CC2Oc3c(CCCC(=O)O)cccc3C21 (racemic) [Beraprost, 2,3,3a,8b-tetrahydro-2-hydroxyl-1-(3-hydroxyl-4-methyl-1-octen-6-ynyl)-1H-cyclopenta[b]benzofuran-5-butanoic acid, sodium salt]
[4]
  EC50: 436 nM
[4]; ratio of EC50 values
  fold lower affinity as compared to GP1681 for the IP receptor: about 4 fold

## O=C(O)CC/C=C\CC[C@H]1[C@H](N2CCOCC2)C(=O)C[C@H]1OCc1ccc(-c2ccccc2)cc1 [AH 23848 (Ca salt)]
[1]; [7]
  IC50: > 10 µM
[1]; GP1681 at EC80
  inhibition of GP1681 activity, in words: did not inhibit GP1681

## CCCCCC(O)CCC1CCC(=O)N1CCCCCCC(=O)O (stereo not drawn) [CAY10580]
[1]; [7]
  IC50: > 10 µM
[1]; only at 3 and 10 μM concentrations
  complementary activity in antagonist assay, in words: low level of complementary activity
[1]; GP1681 at EC80
  inhibition of GP1681 activity, in words: did not inhibit activity of GP1681

## CCCCC[C@H](O)/C=C/[C@H]1[C@H](O)CC(=O)[C@@H]1C/C=C\CCCC(=O)O [PGE2, Prostaglandin E2, reference compound]
[5]; [8]
  EC50: 4.9 nM
[5]; [9]
  EC50: 6.3 nM
